{
  "source": "BindingDB's records for patent US9040518",
  "about": "(Glaxosmithkline, 2015)",
  "target": "T1, Ileal sodium/bile acid cotransporter (Homo sapiens, UniProt Q12908)",
  "T1 sequence (Q12908 whole entry)": "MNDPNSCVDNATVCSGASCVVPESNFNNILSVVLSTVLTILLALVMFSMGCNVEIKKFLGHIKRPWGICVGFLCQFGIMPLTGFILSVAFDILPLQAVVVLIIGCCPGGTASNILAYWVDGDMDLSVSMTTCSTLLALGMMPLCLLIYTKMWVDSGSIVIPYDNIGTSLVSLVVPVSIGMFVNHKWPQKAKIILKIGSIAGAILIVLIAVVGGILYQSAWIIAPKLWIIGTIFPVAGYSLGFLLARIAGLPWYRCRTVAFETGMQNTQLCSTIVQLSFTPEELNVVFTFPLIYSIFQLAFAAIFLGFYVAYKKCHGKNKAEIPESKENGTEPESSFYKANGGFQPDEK",
  "experiment": "Inhibition Assay",
  "conditions": "25 °C",
  "method": "On the day of the uptake experiment, 10 mM HEPES was added to Hank's Balanced Salt Solution, and the pH was adjusted to 7.4 with TRIS (HBSSH). The assay buffer was prepared by adding 100 uM [3H]-taurocholate and 10 uM cold taurocholate to room temperature HBSSH. A separate washing buffer was prepared by adding 10 uM cold taurocholate to HBSSH (30 ml per assay plate) and placed on ice. Using 100% DMSO, 8 point, 3-fold dilution curves for each test compound was prepared starting at 200 uM. […] Drug plates were created by adding 3 uL of each concentration to a v-bottom 96-well plate then diluted 60-fold with 177 uL of assay buffer. Plates were removed from the incubator and allowed to cool to ambient temperature.",
  "note": "pIC50: −log10 of the molar value.",
  "data": [
    {"smiles": "CCCC[C@]1(CC)CS(=O)(=O)c2cc(CCCC(N)=O)c(OC)cc2[C@@H](c2ccccc2)N1", "note": "[US9040518, 24]", "values": [
      {"measurement": "pIC50", "value": 7.14}
    ]},
    {"smiles": "CCCC[C@]1(CC)CS(=O)(=O)c2cc(CN3CCC[C@H]3C(=O)O)c(OC)cc2[C@@H](c2ccccc2)N1", "note": "[US9040518, 63]", "values": [
      {"measurement": "pIC50", "value": 5.05}
    ]}
  ]
}
